Test [1] has as its system Aedes aegypti. The test is described as follows: Olfactometer attraction test, treatment port vs control port, approximately 75 female mosquitoes. The following applies: for Response with L-LA (%): compound 500 μL together with L-lactic acid; for Δ [(Resp with LA) − Resp] (%): difference between response with L-lactic acid and response alone; for caught in CK (check or control port): compound alone 500 μL in treatment port; for Response with Ace (%): base compound together with acetone; for Δ [(Resp with Ace) − Resp] (%): difference between response with acetone and response alone. Type of test: in vivo.
Procedure: The tests were conducted in an olfactometer (55 ft^3/min airflow, 80° F., 60% R.H.) as described by Posey, J. Med. Entomol., 35, 330-334 (1998); and LA is lactic acid. Mosquitoes were allowed to settle at least one hour prior to testing. The olfactometer was cleaned after each battery of tests. Each battery consisted of three tests, conducted at 08:30, 11:00 and 13:00 hours local time. Each of the three tests was conducted in a separate cage. The control consisted of identical sample delivery devices and conditions compared to that of the treatment side. Both the treatment and control ports were opened and closed simultaneously when inserting a new treatment/control.

The test system of test [2] is Anopheles albimanus. The test is described as follows: Olfactometer attraction test of compounds and compositions.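 Note: olfactometer with a treatment port and a matching control port using identical delivery device and conditions, both opened together, three tests per battery, each run in its own cage.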 Type of test: in vivo.
[3] abbreviates: compound alone, high dose of 500 μL.
Setting [4] is: single compound, dose 500 (μL), 60 mL glass petri dish, Aedes aegypti attraction.
[5] abbreviates: base compound alone (mode of action similar to lactic acid).

Take `CCCCC(C)=O` [2-hexanone]: in test [1], the “Response with L-LA (%)” value is listed as 51% and the “Δ [(Resp with LA) − Resp] (%)” value is reported as 48%. In addition, the “Response (%)” value in test [1] (setting [3]) is 3%. Besides, the “Response Avg %” value in test [1] (setting [4]) came out at 3.0%. The “% caught” value in test [2] (single treatment, 500 μL) was 4.3%.

On to `CCC(=O)C(C)C` [2-methyl-3-pentanone], for which, in test [1], the “Response with L-LA (%)” value is 9% and the “Δ [(Resp with LA) − Resp] (%)” value was 8%. In test [1] (setting [3]), the “Response (%)” value turned out to be 1%. Moreover, the “Response Avg %” value in test [1] (setting [4]) worked out at 1.0%. Besides, in test [2] (single treatment, 500 μL), the “% caught” value came to 5.3%.

As for `Cc1ccco1` [2-methylfuran], in test [1], the “Response with L-LA (%)” value is on record as 52% and the “Δ [(Resp with LA) − Resp] (%)” value turned out to be 37%. Besides, the “caught in CK (check or control port)” value in test [1] (mosquitoes in control port) amounted to 30%. For the same compound, in test [1] (setting [3]), the “Response (%)” value is 15%. Also, the “% caught” value in test [2] (single treatment, 500 μL) stood at 35.5%.

As for `CCCCCCCC(C)=O` [2-nonanone], in test [1], the “Response with L-LA (%)” value stood at 12% and the “Δ [(Resp with LA) − Resp] (%)” value came out at 4%. In addition, in test [1] (setting [3]), the “Response (%)” value is given as 8%. For the same compound, the “% caught” value in test [2] (single treatment, 500 μL) worked out at 27.0%.

With `CCCCCCC(C)=O` [2-octanone], in test [1], the “Response with L-LA (%)” value came out at 16% and the “Δ [(Resp with LA) − Resp] (%)” value is 8%. In test [1] (setting [3]), the “Response (%)” value worked out at 8%. Further, the “% caught” value in test [2] (single treatment, 500 μL) is on record as 28.6%.

`CCCC(C)=O` [2-pentanone]: in test [1], the “Response with L-LA (%)” value is 76% and the “Δ [(Resp with LA) − Resp] (%)” value is 64%. Moreover, the “Response (%)” value in test [1] (setting [3]) came to 8%. For the same compound, the “% caught” value in test [2] (single treatment, 500 μL) is on record as 10.8%.

Consider `C=CC(C)=O` [3-buten-2-one], for which, in test [1], the “Response with L-LA (%)” value was 39% and the “Δ [(Resp with LA) − Resp] (%)” value was 8%. The “caught in CK (check or control port), with L-LA” value in test [1] (compound 500 μL with L-lactic acid in treatment port, mosquitoes in control port) stood at 51%. Further, the “caught in CK (check or control port)” value in test [1] (mosquitoes in control port) is on record as 61%. In addition, the “Response (%)” value in test [1] (setting [3]) was 31%. For the same compound, the “Response Avg %” value in test [1] (no Base, Activator1 dose 500, 60 mL glass petri dish) stood at 31.0%. Further, the “% caught” value in test [2] (single treatment, 500 μL) is reported as 45.2%.

Regarding `CCCCC(=O)CC` [3-heptanone], in test [1], the “Response with L-LA (%)” value turned out to be 36% and the “Δ [(Resp with LA) − Resp] (%)” value was 24%. Further, in test [1] (setting [3]), the “Response (%)” value amounted to 12%. Moreover, the “% caught” value in test [2] (single treatment, 500 μL) is 11.3%.

Turning to `CCCC(=O)CC` [3-hexanone], in test [1], the “Response with L-LA (%)” value is given as 39% and the “Δ [(Resp with LA) − Resp] (%)” value came out at 38%. Moreover, the “Response (%)” value in test [1] (setting [3]) is given as 1%. The “Response Avg %” value in test [1] (setting [4]) came out at 1.0%. In test [2] (single treatment, 500 μL), the “% caught” value came to 8.3%.

Regarding `CC(=O)C(C)O` (stereo not shown) [3-hydroxy-2-butanone], the “Response (%)” value in test [1] (setting [5]) worked out at 9%. In test [1], the “Response with Ace (%)” value was 57%, the “Response with L-LA (%)” value turned out to be 35%, the “Δ [(Resp with LA) − Resp] (%)” value is 24% and the “Δ [(Resp with Ace) − Resp] (%)” value came out at 48%. Further, the “Response (%)” value in test [1] (setting [3]) amounted to 11%. Moreover, the “% caught” value in test [2] (single treatment, 500 μL) came to 1.3%.

As for `CC(=O)C(C)C` [3-methyl-2-butanone], in test [1], the “Response with L-LA (%)” value turned out to be 82% and the “Δ [(Resp with LA) − Resp] (%)” value stood at 74%. For the same compound, the “Response (%)” value in test [1] (setting [3]) was 8%. Besides, the “% caught” value in test [2] (single treatment, 500 μL) was 24.4%.

Turning to `CCC(C)C(C)=O` (stereo not shown) [3-methyl-2-pentanone], in test [1], the “Response with L-LA (%)” value is listed as 9% and the “Δ [(Resp with LA) − Resp] (%)” value is 1%. Further, the “Response (%)” value in test [1] (setting [3]) is given as 8%. Further, the “% caught” value in test [2] (single treatment, 500 μL) amounted to 17.1%.

On to `CCCCCCC(=O)CC` [3-nonanone], for which, in test [1], the “Response with L-LA (%)” value was determined as 9% and the “Δ [(Resp with LA) − Resp] (%)” value was 5%. For the same compound, the “Response (%)” value in test [1] (setting [3]) is 4%. Besides, in test [1] (setting [4]), the “Response Avg %” value is 4.0%. Moreover, the “% caught” value in test [2] (single treatment, 500 μL) amounted to 15.8%.

As to `CCC(=O)CC` [3-pentanone], in test [1], the “Response with L-LA (%)” value was 28% and the “Δ [(Resp with LA) − Resp] (%)” value is 16%. Besides, the “Response (%)” value in test [1] (setting [3]) turned out to be 12%. The “% caught” value in test [2] (single treatment, 500 μL) is on record as 53.9%.

In the case of `CCCC(=O)CCC` [4-heptanone], in test [1], the “Response with L-LA (%)” value is reported as 32% and the “Δ [(Resp with LA) − Resp] (%)” value was determined as 20%. Also, in test [1] (setting [3]), the “Response (%)” value was 12%. In addition, the “% caught” value in test [2] (single treatment, 500 μL) came to 8.0%.

For the compound `CC(=O)CC(C)C` [4-methyl-2-pentanone], in test [1], the “Response with L-LA (%)” value is 64% and the “Δ [(Resp with LA) − Resp] (%)” value is recorded as 64%. The “Response (%)” value in test [1] (setting [3]) was 0%. For the same compound, the “Response Avg %” value in test [1] (setting [4]) came to 0.0%. For the same compound, in test [2] (single treatment, 500 μL), the “% caught” value amounted to 1.3%.

As to `CCCCC(=O)CCCC` [5-nonanone], in test [1], the “Response with L-LA (%)” value came out at 47% and the “Δ [(Resp with LA) − Resp] (%)” value came out at 33%. Further, the “Response (%)” value in test [1] (setting [3]) was found to be 14%. Further, in test [2] (single treatment, 500 μL), the “% caught” value stood at 12.7%.

On to `CC(=O)CCC=C(C)C` [6-methyl-5-hepten-2-one], for which, in test [1], the “Response with L-LA (%)” value amounted to 16% and the “Δ [(Resp with LA) − Resp] (%)” value worked out at 27%. Besides, in test [1] (setting [3]), the “Response (%)” value is 9%. Moreover, in test [2] (single treatment, 500 μL), the “% caught” value is 26.0%.

For `CC(=O)C(=O)O` [Pyruvic Acid], in test [1] (Base alone, dose 50 uL), the “Response Avg %” value is reported as 30.7%. Also, in test [2] (single treatment, 500 μL), the “% caught” value came to 1.4%.

As for `CC(=O)c1ccccc1` [acetophenone], in test [1], the “Response with L-LA (%)” value is 46% and the “Δ [(Resp with LA) − Resp] (%)” value is listed as 37%. The “Response (%)” value in test [1] (setting [3]) stood at 9%. The “% caught” value in test [2] (single treatment, 500 μL) is listed as 7.9%.

On to `O=Cc1ccccc1` [benzaldehyde], for which, in test [1], the “Response with L-LA (%)” value is recorded as 21% and the “Δ [(Resp with LA) − Resp] (%)” value worked out at 12%. The “Response (%)” value in test [1] (setting [3]) came out at 9%. In addition, the “% caught” value in test [2] (single treatment, 500 μL) was 35.5%.

As for `N#Cc1ccccc1` [benzonitrile], in test [1], the “Response with L-LA (%)” value came out at 48% and the “Δ [(Resp with LA) − Resp] (%)” value worked out at 42%. For the same compound, the “Response (%)” value in test [1] (setting [3]) stood at 4%. Also, the “Response Avg %” value in test [1] (setting [4]) was found to be 4.0%. Further, the “% caught” value in test [2] (single treatment, 500 μL) came to 3.8%.

As for `CCCC=O` [butyraldehyde], in test [1] (setting [5]), the “Response (%)” value stood at 6%. Moreover, in test [1], the “Response with Ace (%)” value came to 7%, the “Response with L-LA (%)” value turned out to be 7%, the “Δ [(Resp with LA) − Resp] (%)” value is recorded as 1% and the “Δ [(Resp with Ace) − Resp] (%)” value is reported as 1%. Also, in test [1] (setting [3]), the “Response (%)” value was found to be 6%. The “% caught” value in test [2] (single treatment, 500 μL) is listed as 1.3%.

As for `S=C=S` [carbon disulfide], in test [1], the “Response with L-LA (%)” value is on record as 89% and the “Δ [(Resp with LA) − Resp] (%)” value is recorded as 7%. Further, the “Response (%)” value in test [1] (setting [3]) was determined as 82%. In test [2] (single treatment, 500 μL), the “% caught” value amounted to 56.0%.

For the compound `ClC(Cl)(Cl)Cl` [carbon tetrachloride], in test [1], the “Response with L-LA (%)” value is 92% and the “Δ [(Resp with LA) − Resp] (%)” value came out at 0%. Further, in test [1] (setting [3]), the “Response (%)” value is 92%. The “% caught” value in test [2] (single treatment, 500 μL) came to 74.0%.

Regarding `ClC(Cl)Cl` [chloroform], in test [1], the “Response with L-LA (%)” value is given as 76% and the “Δ [(Resp with LA) − Resp] (%)” value was 52%. Besides, the “Response (%)” value in test [1] (setting [3]) is given as 24%. For the same compound, the “% caught” value in test [2] (in vivo) was 78.7%.

Regarding `CCSSCC` [diethyl disulfide], in test [1], the “Response with L-LA (%)” value is 49% and the “Δ [(Resp with LA) − Resp] (%)” value was determined as 16%. Also, the “Response (%)” value in test [1] (setting [3]) is reported as 33%. Moreover, the “% caught” value in test [2] (single treatment, 500 μL) is reported as 2.8%.

Take `CCSCC` [diethyl sulfide]: in test [1], the “Response with L-LA (%)” value is given as 54% and the “Δ [(Resp with LA) − Resp] (%)” value turned out to be 39%. Moreover, in test [1] (setting [3]), the “Response (%)” value worked out at 15%. The “% caught” value in test [2] (single treatment, 500 μL) was determined as 33.3%.

Take `CSSC` [dimethyl disulfide]: in test [1], the “Response with L-LA (%)” value is listed as 86% and the “Δ [(Resp with LA) − Resp] (%)” value is given as 50%. Besides, the “Response (%)” value in test [1] (setting [3]) stood at 36%. Further, the “% caught” value in test [2] (single treatment, 500 μL) was 97.3%.

Values taken from patent publication US7771713B2, “Chemical composition that attract arthropods” (priority 1999, dated 2010).
